Test results: patent US20250368625A1, “PIPERAZINES” (Grünenthal GmbH, priority 2024, published 2025)

Target: T1, human SSTR4 (Homo sapiens, UniProt P31391)
T1 construct: expressed in transfected cells; host or cells: CHO-K1
Experiment: hSSTR4 cAMP assay (cAMP accumulation, LANCE Ultra cAMP kit, CHO-K1 human SSTR4 Gi cell line)
Type: cell-based
Details: functional agonism, forskolin 10 μM stimulated CHO-K1 human SSTR4 Gi cells, 30 min at 25° C., at least duplicate, averaged; read-out: hSSTR4 EC50
Protocol: cAMP accumulation assay using a CHO-K1 human SSTR4 Gi cell line.
Quantification of intracellular cAMP was performed using the LANCE Ultra cAMP assay kit from Revvity according to the manufacturer's instructions. CHO-K1 human SSTR4 Gi cell were either seeded in a density of 3K cells per well into a 384 well plate and incubated at 37° C. and 5% CO2 for 18-20 h or a stock of frozen cells were defrosted and seeded in a density of 5K cells per well without any further cultivation directly prior to the assay in a total volume of 5 μL in stimulation buffer. For pre-cultured cells, medium was replaced with 5 μL stimulation buffer before the assay. Cells were then stimulated with forskolin (final concentration 10 μM) and test compound (SSTR4 agonist) in increasing concentrations in duplicates for 30 min at 25° C. After stimulation, cells were lysed by addition of 10 μL of detection buffer (provided with the kit) and cell lysates were further diluted to ensure final cAMP concentrations fitted well into the dynamic range of the test kit. 10 μL of the diluted lysates were then added to respective wells of an OptiPlate-384 microplate. Thereafter, 5 μL of 4× Eu-cAMP tracer working solution was added, followed by addition of 5 μL of ULight-anti-cAMP working solution. The plate was then incubated for 1 h at 25° C. before reading on a TR-FRET microplate instrument. Data were normalized to cAMP high (forskolin only) and low control (forskolin+100 nM SST14) before fitting to a 4-Paramter logistic function.
All data was generated according to the cAMP assay conditions described above in at least duplicate and results are averaged and rounded to two significant figures.

T1 sequence (P31391 whole entry): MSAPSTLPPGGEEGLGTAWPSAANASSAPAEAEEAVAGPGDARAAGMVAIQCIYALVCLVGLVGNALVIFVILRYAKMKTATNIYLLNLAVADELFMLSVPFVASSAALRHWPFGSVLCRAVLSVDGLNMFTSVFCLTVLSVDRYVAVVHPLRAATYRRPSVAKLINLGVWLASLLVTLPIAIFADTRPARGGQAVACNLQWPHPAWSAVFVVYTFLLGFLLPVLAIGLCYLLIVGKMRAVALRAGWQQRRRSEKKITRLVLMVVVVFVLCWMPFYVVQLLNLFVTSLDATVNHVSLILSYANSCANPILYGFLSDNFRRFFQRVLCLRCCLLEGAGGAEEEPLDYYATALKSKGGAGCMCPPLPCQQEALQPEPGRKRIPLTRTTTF

SMILES	EC50 [nM]
Cc1cccn2c(C(C)(C)NC(=O)[C@@H]3CNCCN3C3CCC(F)(F)CC3)ncc12 [SC-032, (S)-1-(4,4-difluorocyclohexyl)-N-(2-(8-methylimidazo[1,5-a]pyridin-3-yl)propan-2-yl)piperazine-2-carboxamide]	0.23
Cc1cccn2c(C(C)(C)NC(=O)[C@@H]3CNCCN3CC3CCOCC3)ncc12 [SC-086, (S)-N-(2-(8-methylimidazo[1,5-a]pyridin-3-yl)propan-2-yl)-1-((tetrahydro-2H-pyran-4-yl)methyl)piperazine-2-carboxamide]	0.16
COCC(C)(C)CN1CCNC[C@H]1C(=O)NC(C)(C)c1ncc2c(C)cccn12 [SC-039, (S)-1-(3-methoxy-2,2-dimethylpropyl)-N-(2-(8-methylimidazo[1,5-a]pyridin-3-yl)propan-2-yl)piperazine-2-carboxamide]	1.4
Cc1cccn2c(C(C)(C)NC(=O)[C@@H]3CN(C4CCOCC4)CCN3)ncc12 [SC-056, (S)-N-(2-(8-methylimidazo[1,5-a]pyridin-3-yl)propan-2-yl)-4-(tetrahydro-2H-pyran-4-yl)piperazine-2-carboxamide]	3000
Cc1cccn2c(C(C)(C)NC(=O)[C@@H]3CNCCN3CC(C)C)ncc12 [SC-034, (S)-1-isobutyl-N-(2-(8-methylimidazo[1,5-a]pyridin-3-yl)propan-2-yl)piperazine-2-carboxamide]	0.25
Cc1cccc2c(C(C)(C)NC(=O)[C@@H]3CNCCN3CC3COC3)n[nH]c12 [SC-122, (S)—N-(2-(7-methyl-1H-indazol-3-yl)propan-2-yl)-1-(oxetan-3-ylmethyl)piperazine-2-carboxamide]	1.2
Cc1cccn2c(C(C)(C)NC(=O)[C@@H]3CNCCN3Cc3ccnc(C(F)(F)F)c3)ncc12 [SC-036, (S)-N-(2-(8-methylimidazo[1,5-a]pyridin-3-yl)propan-2-yl)-1-((2-(trifluoromethyl)pyridin-4-yl)methyl)piperazine-2-carboxamide]	0.09
Cc1cccn2c(C(C)(C)NC(=O)[C@@H]3CN(Cc4ccncc4)CCN3)ncc12 [SC-059, (S)-N-(2-(8-methylimidazo[1,5-a]pyridin-3-yl)propan-2-yl)-4-(pyridin-4-ylmethyl)piperazine-2-carboxamide]	130
Cc1cccn2c(C(C)(C)NC(=O)[C@@H]3CNCCN3C(=O)C3CC(F)(F)C3)ncc12 (racemic) [SC-011, rac-1-(3,3-difluorocyclobutane-1-carbonyl)-N-(2-(8-methylimidazo[1,5-a]pyridin-3-yl)propan-2-yl)piperazine-2-carboxamide]	1300
Cc1cccc2c(C(C)(C)NC(=O)[C@@H]3CNCCN3C)nn(C)c12 [SC-126, (S)-N-(2-(1,7-dimethyl-1H-indazol-3-yl)propan-2-yl)-1-methylpiperazine-2-carboxamide]	2.6
Cc1cccn2c(C(C)(C)NC(=O)C3CNCCN3Cc3cncnc3)ncc12 (racemic) [SC-005, rac-N-(2-(8-methylimidazo[1,5-a]pyridin-3-yl)propan-2-yl)-1-(pyrimidin-5-ylmethyl)piperazine-2-carboxamide]	2.3
CN1CCNC[C@H]1C(=O)NC(C)(C)c1ncc2c(C3CC3)cccn12 [SC-118, (S)-N-(2-(8-cyclopropylimidazo[1,5-a]pyridin-3-yl)propan-2-yl)-1-methylpiperazine-2-carboxamide]	15
CC(=O)N1CCNCC1C(=O)NC(C)(C)c1ncc2c(C)cccn12 (racemic) [SC-009, rac-1-acetyl-N-(2-(8-methylimidazo[1,5-a]pyridin-3-yl)propan-2-yl)piperazine-2-carboxamide]	3400
Cc1cccn2c(C(C)(C)NC(=O)[C@@H]3CNCCN3Cc3cnn(C)c3)ncc12 [SC-090, (S)-1-((1-methyl-1H-pyrazol-4-yl)methyl)-N-(2-(8-methylimidazo[1,5-a]pyridin-3-yl)propan-2-yl)piperazine-2-carboxamide]	1.8
Cc1cccn2c(C(C)(C)NC(=O)[C@@H]3CN(C(=O)c4cnn(C)c4)CCN3)ncc12 [SC-083, (S)-4-(1-methyl-1H-pyrazole-4-carbonyl)-N-(2-(8-methylimidazo[1,5-a]pyridin-3-yl)propan-2-yl)piperazine-2-carboxamide]	6700
Cc1cccn2c(C(C)(C)NC(=O)[C@@H]3CN(Cc4cnn(C(C)C)c4)CCN3)ncc12 [SC-074, (S)-4-((1-isopropyl-1H-pyrazol-4-yl)methyl)-N-(2-(8-methylimidazo[1,5-a]pyridin-3-yl)propan-2-yl)piperazine-2-carboxamide]	2600

SMILES	EC50 [nM]
CC(C)(NC(=O)[C@@H]1CNCCN1CC1CC(F)(F)C1)c1ncc2c(C3CC3)cccn12 [SC-121, (S)-N-(2-(8-cyclopropylimidazo[1,5-a]pyridin-3-yl)propan-2-yl)-1-((3,3-difluorocyclobutyl)methyl)piperazine-2-carboxamide]	16
Cc1cccn2c(C(C)(C)NC(=O)[C@@H]3CN(Cc4ncco4)CCN3)ncc12 [SC-065, (S)-N-(2-(8-methylimidazo[1,5-a]pyridin-3-yl)propan-2-yl)-4-(oxazol-2-ylmethyl)piperazine-2-carboxamide]	1300
Cc1cccn2c(C(C)(C)NC(=O)[C@@H]3CN(C(=O)C4CC(F)(F)C4)CCN3)ncc12 [SC-080, (S)-4-(3,3-difluorocyclobutane-1-carbonyl)-N-(2-(8-methylimidazo[1,5-a]pyridin-3-yl)propan-2-yl)piperazine-2-carboxamide]	> 10000
Cc1cccn2c(C(C)(C)NC(=O)[C@@H]3CNCCN3C(C)C)ncc12 [SC-035, (S)-1-isopropyl-N-(2-(8-methylimidazo[1,5-a]pyridin-3-yl)propan-2-yl)piperazine-2-carboxamide]	0.35
Cn1cc(CN2CCNC[C@H]2C(=O)NC(C)(C)c2ncc3c(C4CC4)cccn23)cn1 [SC-120, (S)-N-(2-(8-cyclopropylimidazo[1,5-a]pyridin-3-yl)propan-2-yl)-1-((1-methyl-1H-pyrazol-4-yl)methyl)piperazine-2-carboxamide]	53
COCCN1CCNC[C@H]1C(=O)NC(C)(C)c1n[nH]c2c(C)cccc12 [SC-097, (S)-1-(2-methoxyethyl)-N-(2-(7-methyl-1H-indazol-3-yl)propan-2-yl)piperazine-2-carboxamide]	1.2
Cc1cccn2c(C(C)(C)NC(=O)[C@@H]3CNCCN3CC(F)F)ncc12 [SC-127, (S)-1-(2,2-difluoroethyl)-N-(2-(8-methylimidazo[1,5-al]pyridin-3-yl)propan-2-yl)piperazine-2-carboxamide]	1.1
Cc1cccn2c(C(C)(C)NC(=O)[C@@H]3CNCCN3C(C)C)ncc12 (racemic) [SC-002, rac-1-isopropyl-N-(2-(8-methylimidazo[1,5-a]pyridin-3-yl)propan-2-yl)piperazine-2-carboxamide]	1.1
Cc1cccn2c(C(C)(C)NC(=O)[C@@H]3CNCCN3Cc3cccc(F)c3)ncc12 [SC-029, (S)-1-(3-fluorobenzyl)-N-(2-(8-methylimidazo[1,5-a]pyridin-3-yl)propan-2-yl)piperazine-2-carboxamide]	0.11
COCCN1CCNC[C@H]1C(=O)NC(C)(C)c1nn(C)c2ccccc12 [SC-101, (S)-1-(2-methoxyethyl)-N-(2-(1-methyl-1H-indazol-3-yl)propan-2-yl)piperazine-2-carboxamide]	5.9
Cc1cccn2c(C(C)(C)NC(=O)[C@@H]3CN(CC(F)(F)F)CCN3)ncc12 [SC-049, (S)-N-(2-(8-methylimidazo[1,5-a]pyridin-3-yl)propan-2-yl)-4-(2,2,2-trifluoroethyl)piperazine-2-carboxamide]	3300
Cc1cccn2c(C(C)(C)NC(=O)C3CNCCN3C(=O)c3cnn(C)c3)ncc12 (racemic) [SC-010, rac-1-(1-methyl-1H-pyrazole-4-carbonyl)-N-(2-(8-methylimidazo[1,5-a]pyridin-3-yl)propan-2-yl)piperazine-2-carboxamide]	3500
Cc1cccn2c(C(C)(C)NC(=O)[C@@H]3CN(Cc4ccn(C(C)C)n4)CCN3)ncc12 [SC-073, (S)-4-((1-isopropyl-1H-pyrazol-3-yl)methyl)-N-(2-(8-methylimidazo[1,5-a]pyridin-3-yl)propan-2-yl)piperazine-2-carboxamide]	4800
CN1CCN[C@H](C(=O)NC(C)(C)c2nn(C)c3ccccc23)C1 [SC-099, (S)-4-methyl-N-(2-(1-methyl-1H-indazol-3-yl)propan-2-yl)piperazine-2-carboxamide]	21
Cc1cccn2c(C(C)(C)NC(=O)[C@@H]3CN(C(=O)C4CC4)CCN3)ncc12 [SC-077, (S)-4-(cyclopropanecarbonyl)-N-(2-(8-methylimidazo[1,5-a]pyridin-3-yl)propan-2-yl)piperazine-2-carboxamide]	> 1000
Cc1cccn2c(C(C)(C)NC(=O)[C@@H]3CN(CC4CCC(F)(F)CC4)CCN3)ncc12 [SC-067, (S)-4-((4,4-difluorocyclohexyl)methyl)-N-(2-(8-methylimidazo[1,5-a]pyridin-3-yl)propan-2-yl)piperazine-2-carboxamide]	2400
